Test results reported in paper PMC5681922, “Systemic Responses of Multidrug-Resistant Pseudomonas aeruginosa and Acinetobacter baumannii Following Exposure to the Antimicrobial Peptide Cathelicidin-BF Imply Multiple Intracellular Targets” (Frontiers in Cellular and Infection Microbiology, 2017).

How the values were obtained:
[1] = test system: P. aeruginosa 1409; assay: Minimal inhibitory concentration (given as multiples of MIC); format: cell-based, Pseudomonas aeruginosa; conditions: MDR clinical isolate; MIC itself not given, only this multiple
[2] = test system: P. aeruginosa 1409; conditions: treated vs untreated, iTRAQ
[3] = test system: P. aeruginosa 1409; assay: Membrane permeabilization assay (propidium iodide); format: cell-based, Pseudomonas aeruginosa; conditions: 1 h at 25°C in LB, then PI 10 μg/mL 30 min, fluorescence microscope
Description: Then, PI was added to a final concentration of 10 μg/mL. After 30 min of incubation at 25°C, the cells were washed 3 times with PBS and immediately imaged with a fluorescence microscope (Olympus, Japan) (Yu et al., [2015]).
Figure 3 Bacterial plasma membrane permeabilization assay of cathelicidin-BF. Cathelicidin-BF and levofloxacin were incubated with MDR P. aeruginosa in Luria-Bertani medium at final concentrations of 4 × MIC (minimal inhibitory concentration) or ¼ × MIC. After incubation at 25°C for 1 h, bacteria were collected by centrifugation at 3,000 × g for 5 min and resuspended with PBS. The DNA-binding fluorescent dye PI was added to a final concentration of 10 μg/mL. After 30 min incubation at 25°C, the cells were washed 3 times with PBS and immediately imaged using a fluorescence microscope.

[4] = cathelicidin-BF at 1/2 MIC (4 μg/mL), 37°C, 2 h
[5] = cathelicidin-BF change not categorized as differentially expressed

4 × MIC [1]: 64 µg/mL | expression of protein Q9I3S7 (likely decarboxylase) [2, 4]: overexpressed | expression of protein Q9HTV3 (3-octaprenyl-4-hydroxybenzoate carboxy-lyase) [2, 5]: downregulated | expression of protein Q9I298 (putative 3-methylglutaconyl-ConA hydratase) [2, 5]: downregulated | integrity of bacterial membranes, PI staining at 4 × MIC ([3]; 4 × MIC (cathelicidin-BF 32 μg/mL, levofloxacin 64 μg/mL)): showed red fluorescence | integrity of bacterial membranes, PI staining at ¼ × MIC ([3]; ¼ × MIC (cathelicidin-BF 2 μg/mL, levofloxacin 4 μg/mL)): no red dyes were detected
SMILES: C[C@H]1COc2c(N3CCN(C)CC3)c(F)cc3c(=O)c(C(=O)O)cn1c23 [levofloxacin, reference compound]
expression of protein Q9HVA1 (acetolactate synthase isozyme III small subunit) [2, 4]: overexpressed | expression of protein Q9I5V3 (multifunctional CCA protein) ([2]; levofloxacin change not categorized as differentially expressed): downregulated
